Test results: PubChem BioAssay AID330 (DTP/NCI, 2004)
“And” between values parts separate entries of the source, which are not always exact repeats. Equal entries are not always repeated. Toxic doses and inconclusive results are not listed. The calls were made as follows: active = survival T/C of 150% or more; inactive = T/C below 125% in these data.

System: P388 leukemia ip, CD2F1 mice, survival T/C
Experiment: NCI In Vivo Anticancer Drug Screen. Data for tumor model P388 Leukemia (intraperitoneal) in CD2F1 (CDF1) mice
Details: endpoint: median survival time, higher = longer survival
Outline: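 Mice carrying the transplanted tumor received test compound or vehicle. Survival was recorded in each group, and the value is the treated-group measurement divided by that of the vehicle-treated control group.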

[1] = dose: 50.0 mg/kg/injection, schedule: Q01DX005 (ip), vehicle: Klucel (hydroxypropylcellulose) (HPC)
[2] = dose: 100.0 mg/kg/injection, schedule: Q01DX005 (ip), vehicle: Klucel (hydroxypropylcellulose) (HPC)
[3] = dose: 100.0 mg/kg/injection, schedule: Q04DX003 (ip), vehicle: Klucel (hydroxypropylcellulose) (HPC)
[4] = dose: 200.0 mg/kg/injection, schedule: Q04DX003 (ip), vehicle: Klucel (hydroxypropylcellulose) (HPC)
[5] = dose: 60.0 mg/kg/injection, schedule: Q01DX005 (ip), vehicle: saline with Tween-80
[6] = dose: 120.0 mg/kg/injection, schedule: Q01DX005 (ip), vehicle: saline with Tween-80
[7] = dose: 240.0 mg/kg/injection, schedule: Q01DX005 (ip), vehicle: saline with Tween-80
[8] = dose: 200.0 mg/kg/injection, schedule: Q01DX005 (ip), vehicle: Klucel (hydroxypropylcellulose) (HPC)
[9] = dose: 50.0 mg/kg/injection, schedule: Q01DX009 (ip), vehicle: saline with Tween-80
[10] = dose: 100.0 mg/kg/injection, schedule: Q01DX009 (ip), vehicle: saline with Tween-80
[11] = dose: 25.0 mg/kg/injection, schedule: Q01DX009 (ip), vehicle: Klucel (hydroxypropylcellulose) (HPC)
[12] = dose: 50.0 mg/kg/injection, schedule: Q01DX009 (ip), vehicle: Klucel (hydroxypropylcellulose) (HPC)
[13] = dose: 100.0 mg/kg/injection, schedule: Q01DX009 (ip), vehicle: Klucel (hydroxypropylcellulose) (HPC)
[14] = dose: 200.0 mg/kg/injection, schedule: Q01DX009 (ip), vehicle: Klucel (hydroxypropylcellulose) (HPC)

Measured: T/C

CC(C)(C)OC(=O)NCC(=O)NC(CSC(c1ccccc1)c1ccccc1)C(=O)NCC(=O)O (centres undefined)
inactive: [1] 105 % of control | [2] 99 % of control

CC[C@@]1(O)C[C@H](OC2CC(N(C)C)C(O)C(C)O2)c2c(O)c3c(c(O)c2[C@H]1OC1CC(N(C)C)C(O)C(C)O1)C(=O)c1cccc(O)c1C3=O (some centres undefined)
inactive: dose: 0.03 mg/kg/injection, schedule: Q01DX009 (ip), vehicle: other 118 % of control | dose: 0.03 mg/kg/injection, schedule: Q04DX003 (ip), vehicle: other 112 % of control | dose: 0.06 mg/kg/injection, schedule: Q04DX003 (ip), vehicle: other 114 % of control | dose: 0.13 mg/kg/injection, schedule: Q04DX003 (ip), vehicle: other 124 % of control | dose: 0.25 mg/kg/injection, schedule: Q04DX003 (ip), vehicle: other 121 % of control | dose: 0.5 mg/kg/injection, schedule: Q04DX003 (ip), vehicle: other 93 % of control

CSc1ncnc2c1ncn2C1OC(CO)C(O)OC1O (centres undefined)
inactive: dose: 16.5 mg/kg/injection, schedule: Q01DX009 (ip), vehicle: saline with Tween-80 122 % of control | dose: 50.0 mg/kg/injection, schedule: Q04DX003 (ip), vehicle: saline with Tween-80 109 % of control | dose: 66.0 mg/kg/injection, schedule: Q04DX003 (ip), vehicle: saline with Tween-80 112 % of control | dose: 100.0 mg/kg/injection, schedule: Q04DX003 (ip), vehicle: saline with Tween-80 108 % of control

Cc1ccc(Cl)cc1NC(=O)OCCN(C)C(=O)Nc1cc(Cl)ccc1C
inactive: dose: 15.0 mg/kg/injection, schedule: Q01DX005 (ip), vehicle: Klucel (hydroxypropylcellulose) (HPC) 98 % of control | dose: 30.0 mg/kg/injection, schedule: Q01DX005 (ip), vehicle: Klucel (hydroxypropylcellulose) (HPC) 90 % of control | dose: 60.0 mg/kg/injection, schedule: Q01DX005 (ip), vehicle: Klucel (hydroxypropylcellulose) (HPC) 96 % of control

Cc1ccc2c(N(CCCl)CCCl)cc(-c3ccccc3)nc2n1
inactive: dose: 50.0 mg/kg/injection, schedule: Q04DX003 (ip), vehicle: Klucel (hydroxypropylcellulose) (HPC) 98 % of control | [3] 100 % of control | [4] 99 % of control

NC(N)=NCCCC(N)C(=O)CC(Cc1ccc(O)cc1)C(=O)O (centres undefined)
inactive: dose: 7.5 mg/kg/injection, schedule: Q01DX005 (ip), vehicle: water 98 % of control | dose: 15.0 mg/kg/injection, schedule: Q01DX005 (ip), vehicle: water 98 % of control | dose: 30.0 mg/kg/injection, schedule: Q01DX005 (ip), vehicle: water 95 % of control | dose: 60.0 mg/kg/injection, schedule: Q01DX005 (ip), vehicle: water 98 % of control

Cc1cc(O)c(O)c(Oc2cc(C)cc(O)c2O)c1
inactive: dose: 75.0 micrograms/kg/injection, schedule: Q01DX009 (ip), vehicle: saline 100 % of control | dose: 150.0 micrograms/kg/injection, schedule: Q01DX009 (ip), vehicle: saline 109 % of control | dose: 300.0 micrograms/kg/injection, schedule: Q01DX009 (ip), vehicle: saline 102 % of control

CCOC(=O)C(C#N)C(=N)C1C(=O)OC2CCCCC21 (centres undefined)
inactive: [5] 98 % of control | [6] 100 % of control | [7] 92 % of control

CC(O)C(C(c1ccccc1)N1CCOCC1)N1CCOCC1 (centres undefined)
inactive: [1] 99 % of control | [2] 90 % of control | [8] 98 % of control

CCOC(=O)c1ccc(NC(=O)Nc2nn[nH]n2)cc1
inactive: dose: 25.0 mg/kg/injection, schedule: Q01DX009 (ip), vehicle: distilled water + Tween-80 105 % of control | dose: 50.0 mg/kg/injection, schedule: Q01DX009 (ip), vehicle: distilled water + Tween-80 115 % of control | dose: 100.0 mg/kg/injection, schedule: Q01DX009 (ip), vehicle: distilled water + Tween-80 108 % of control | dose: 200.0 mg/kg/injection, schedule: Q01DX009 (ip), vehicle: distilled water + Tween-80 100 % of control | dose: 400.0 mg/kg/injection, schedule: Q01DX009 (ip), vehicle: distilled water + Tween-80 108 % of control

CCOC(=O)c1c(C)c2c(n1Cc1ccccc1)CCCC2=O
inactive: [3] 99 % of control | [4] 97 % of control | dose: 400.0 mg/kg/injection, schedule: Q04DX003 (ip), vehicle: Klucel (hydroxypropylcellulose) (HPC) 98 % of control

O=C(N/N=C/c1ccc(F)cc1)c1ccncc1
inactive: [9] 91 % of control | [10] 92 % of control | dose: 200.0 mg/kg/injection, schedule: Q01DX009 (ip), vehicle: saline with Tween-80 90 % of control

C[N+]1(C)CC[N+](C)(C)CC1
inactive: [11] 103 % of control | [12] 103 % of control | [13] 100 % of control | [14] 110 % of control

C=C1C(=O)OC2/C=C(CO)/C=C\C3OC3(C)CC(OC(=O)/C(C)=C/COC(C)=O)C12 (centres undefined)
inactive: dose: 6.25 mg/kg/injection, schedule: Q01DX005 (ip), vehicle: Klucel (hydroxypropylcellulose) (HPC) 94 % of control | dose: 12.5 mg/kg/injection, schedule: Q01DX005 (ip), vehicle: Klucel (hydroxypropylcellulose) (HPC) 103 % of control | dose: 25.0 mg/kg/injection, schedule: Q01DX005 (ip), vehicle: Klucel (hydroxypropylcellulose) (HPC) 109 % of control and 94 % of control | [1] 98 % of control

COC(=O)C1=C(C(=O)OC)C23C(=O)c4ccc(OC)c(OC)c4C1N2CCc1cc2c(cc13)OCO2 (centres undefined)
inactive: dose: 50.0 mg/kg/injection, schedule: Q04DX002 (ip), vehicle: saline with Tween-80 94 % of control | dose: 100.0 mg/kg/injection, schedule: Q04DX002 (ip), vehicle: saline with Tween-80 102 % of control | dose: 200.0 mg/kg/injection, schedule: Q04DX002 (ip), vehicle: saline with Tween-80 100 % of control

CN(N=O)P(=O)(Nc1ccccc1)Nc1ccccc1
inactive: dose: 6.25 mg/kg/injection, schedule: Q01DX009 (ip), vehicle: other 100 % of control | dose: 25.0 mg/kg/injection, schedule: Q01DX009 (ip), vehicle: other 100 % of control | dose: 50.0 mg/kg/injection, schedule: Q01DX009 (ip), vehicle: other 100 % of control

NC(=O)NC1(C(=O)O)CCCC1
inactive: [11] 102 % of control | [12] 103 % of control | [13] 103 % of control | [14] 105 % of control

CC1CCCC(C)N1C(=O)c1ccccc1 (centres undefined)
inactive: [5] 98 % of control | [6] 97 % of control | [7] 96 % of control

CSC(=S)N1CC(=O)N(C(=S)SC)CC1=O
inactive: [1] 87 % of control | [2] 92 % of control | [8] 86 % of control

CCCCN=C(N)N/N=C(\C)c1ccc(-c2ccccc2)cc1
inactive: dose: 1.25 mg/kg/injection, schedule: Q04DX002 (ip), vehicle: saline with Tween-80 102 % of control | dose: 2.5 mg/kg/injection, schedule: Q04DX002 (ip), vehicle: saline with Tween-80 104 % of control | dose: 5.0 mg/kg/injection, schedule: Q04DX002 (ip), vehicle: saline with Tween-80 104 % of control

Nc1nc(-c2ccc(Cl)cc2)nc2sc3c(c12)CCCCC3
inactive: dose: 50.0 mg/kg/injection, schedule: Q01DX005 (ip), vehicle: saline with Tween-80 90 % of control | dose: 100.0 mg/kg/injection, schedule: Q01DX005 (ip), vehicle: saline with Tween-80 90 % of control | dose: 200.0 mg/kg/injection, schedule: Q01DX005 (ip), vehicle: saline with Tween-80 95 % of control

N.O=S(=O)(O)O.[Al]
inactive: [9] 100 % of control | [10] 100 % of control
